Legend:
[1] = tested on: TRN neurons expressing eGLuc-VChR1; assay: in vitro slice recordings of TRN neurons transduced with AAV2/9-hSyn-eGLuc-VChR1, CTZ superfusion; format: cell-based, mice
Description: (§1) Mice were injected with AAV2/9-hSyn-eGLuc-VChR1 into the thalamus of mice, and in vitro slice experiments were performed 7-12 days later. […] VPm expression was negligible except from TRN axons. Expressing TRN neurons were electrophysiologically normal, and strongly responsive to LED light pulses (FIGS. 5B and 5C). The short latencies and other properties of these responses indicate robust VChR1 expression. Superfusion of the luciferin CTZ (100 μM) caused ca. 1-3 mV reversible depolarization (FIGS. 5D and 5E; N=3 cells, 2 mice). […] At 20 days post viral injection, a 16-contact laminar electrode was used to record from the TRN and neighboring relay nuclei under light isoflurane anesthesia (0.5%). […] Spike shape also indicated relay neuron and not TRN identity. […] These combined effects are consistent with TRN-driven hyperpolarization of this neuron and a shift to burst mode.

[2] = tested on: TRN and neighboring relay nuclei (eGLuc-VChR1); assay: in vivo laminar electrode recording from TRN and neighboring relay nuclei after IV CTZ; parameters: species or system mice; conditions: ca. 150 μg CTZ IV (tail vein)
Description: as §1

[3] = tested on: neocortical neurons expressing eGLuc-VChR1; assay: action potential firing in cultured neocortical neurons expressing eGLuc-VChR1; format: cell-based; conditions: cell expressing fusion protein containing eGLuc-VChR1 (depolarization)
Excerpt: (§2) The neurons were modified to express fusion proteins including a luminescent protein (enhanced Gaussia luciferase (eGLuc)) and either VChR1 or Mac. Successful expression of the full construct in the neocortical neurons was confirmed by observation of the fluorescence of the reporter protein (upper middle panel titled Fluorescence in FIG. 3). Ability of eGLuc to luminesce was unaffected by the inclusion of light-gated ion channel (VChR1 or Mac), as shown in the upper right panel titled Luminescence in FIG. 3).

[4] = tested on: neocortical neurons expressing eGLuc-Mac; assay: action potential firing in cultured neocortical neurons expressing eGLuc-Mac; format: cell-based; conditions: cell expressing fusion protein containing eGLuc-Mac (hyperpolarization)
Excerpt: as §2

[5] = tested on: rat cortical neurons expressing LMO3; assay: multi electrode array (MEA) recording and luminescence of cortical neurons expressing LMO3 (sbGLuc-VChR1); format: cell-based
Excerpt: FIGS. 12A-12D show multi electrode arrays used in the in vitro experiments on rat cortical neurons. FIG. 12A is a schematic of the multi electrode array. FIGS. 12B and 12C are images of the electrode array. FIG. 12D is a fluorescent image of MEA culture of rat cortical neurons transduced with AAV-hSyn-LMO3, where LMO3 is a fusion of sbGLuc and VChR1. Neurons are visible in fluorescent green, because of the expression of LMO3, which includes EYFP.
FIG. 13 is a series of graphs showing the luminescence and neuronal activity of rat cortical neurons in response to contacting with coelenterazine (CTZ) or with the vehicle.
Excitable cells (rat cortical neurons) expressing a light-gated ion channel (VChR1) fused to a luminescent protein (Gaussia luciferase) were cultured on multi electrode arrays (MEA), as shown in FIGS. 12A-12D. The results are shown in FIG. 13 Under continuous recording MEA dishes were injected (see arrows) with CTZ or with vehicle. Upon injection a pronounced artifact was observed (see FIG. 13). […] In contrast, vehicle injection causes the artifact, but neuronal spiking pattern is not altered. […] Neurons in the culture express LMO3 (luminopsins 3, a fusion of sbGLuc and VChR1). Upon application of substrate (CTZ), but not of vehicle, the luciferase emits light which activates the channelrhodopsin, resulting in changed spiking activity (see before and after CTZ). […]

[6] = tested on: neocortical neurons transfected with Gaussia luciferase; assay: IVIS imaging of mouse brain expressing Gaussia luciferase after intravenous coelenterazine; format: in vivo; conditions: intravenous injection several weeks after transfection; right hemisphere
Description: FIG. 2 is a photograph showing an example in which neocortical neurons in the right hemisphere were transfected with a Gaussia luciferase.
Several weeks later, coelenterazine was administered intravenously to the mouse, and an image of the mouse's head was taken with IVIS® imaging system (FIG. 2).

## Oc1ccc(Cc2nc3c(Cc4ccccc4)nc(-c4ccc(O)cc4)cn3c2O)cc1 [CTZ, coelenterazine]
[1]; CTZ-evoked depolarization vs control
  onset of stimulus-evoked spike bursts: delaying onset of stimulus-evoked spike bursts
[1]; superfusion of CTZ 100 μM, N=3 cells, 2 mice
  reversible depolarization: 1-3 mV
[2]
  burst rate in Cell 2 (events with 100 msec prior inactivity and >95 Hz spike rate): increase in burst rate
  firing rate in other cells (Cell 2, relay neuron): decreases in firing rate
[2]; putative TRN, 20 days post viral injection, isoflurane 0.5%
  firing in multi-unit activity and well-isolated single neurons (Cell 1): firing increased
[3]
  spontaneous action potential firing: increase in spontaneous action potential firing
[4]
  spontaneous action potential firing: suppression of spontaneous action potential firing
[5]; CTZ injected into MEA dishes, vehicle does not alter pattern
  neuronal spiking pattern on MEA: desynchronized spiking
[5]; contacting with CTZ vs vehicle
  luminescence of neurons: results in luminescence
[6]
  bioluminescence emission through the scalp: emitted brightly
